Results as given in ChEMBL document CHEMBL4130473, “Design, synthesis and biological evaluation of 4,7,12,12a-tetrahydro-5H-thieno[3',2':3,4]pyrido[1,2-b]isoquinolines as novel adenosine 5'-monophosphate-activated protein kinase (AMPK) indirect activators for the treatment of type 2 diabetes” (Eur J Med Chem, 2017).
Blank lines part the entries; values can stand above or below the compound they belong to. The source made the active and inactive calls. The rule behind the calls is not given here.

Columns and labels:
[1] = test system: L6; assay: Stimulation of glucose consumption in rat L6 cells at 20 uM incubated for 12 hrs by glucose assay reagent based glucose oxidase method relative to untreated control; format: functional
[2] = biological target: T1, AMPK alpha2/beta1/gamma1 (Homo sapiens) (UniProt P54646+P54619+Q9Y478); assay: Activation of human recombinant AMPKalpha2beta1gamma1 expressed in Escherichia coli at 50 nM incubated for 1 hr using serine/threonine kinase substrate
[3] = biological target: T2, AMP-activated protein kinase alpha-1/beta-2/gamma-3 (Homo sapiens) (UniProt O43741+Q13131+Q9UGI9); assay: Activation of human recombinant AMPKalpha1beta2gamma3 expressed in Escherichia coli at 50 nM incubated for 1 hr using serine/threonine kinase substrate
[4] = biological target: T3, AMPK alpha1/beta1/gamma2 (Homo sapiens) (UniProt Q9UGJ0+Q9Y478+Q13131); assay: Activation of human recombinant AMPKalpha1beta1gamma2 expressed in Escherichia coli at 50 nM incubated for 1 hr using serine/threonine kinase substrate
[5] = biological target: T4, AMPK alpha1/beta2/gamma1 (Homo sapiens) (UniProt O43741+P54619+Q13131); assay: Activation of human recombinant AMPKalpha1beta2gamma1 expressed in Escherichia coli at 50 nM incubated for 1 hr using serine/threonine kinase substrate
T4 sequence (O43741 whole entry, looked up): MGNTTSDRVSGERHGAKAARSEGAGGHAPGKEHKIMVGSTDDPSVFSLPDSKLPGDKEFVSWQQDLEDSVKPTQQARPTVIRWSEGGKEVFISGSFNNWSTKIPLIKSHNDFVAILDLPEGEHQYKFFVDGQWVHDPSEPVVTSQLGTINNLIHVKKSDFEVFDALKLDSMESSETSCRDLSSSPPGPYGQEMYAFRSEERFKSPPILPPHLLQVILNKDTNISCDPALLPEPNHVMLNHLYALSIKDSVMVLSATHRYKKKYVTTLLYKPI
T4 sequence (P54619 whole entry, looked up): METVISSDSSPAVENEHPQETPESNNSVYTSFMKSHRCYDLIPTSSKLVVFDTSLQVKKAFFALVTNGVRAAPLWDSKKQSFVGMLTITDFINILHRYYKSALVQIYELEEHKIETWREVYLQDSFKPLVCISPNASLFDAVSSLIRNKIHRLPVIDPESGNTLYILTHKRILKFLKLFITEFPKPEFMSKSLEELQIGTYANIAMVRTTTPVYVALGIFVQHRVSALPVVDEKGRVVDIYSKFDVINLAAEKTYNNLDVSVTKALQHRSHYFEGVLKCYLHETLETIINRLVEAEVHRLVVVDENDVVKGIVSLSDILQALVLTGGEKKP
T4 sequence (Q13131 whole entry, looked up): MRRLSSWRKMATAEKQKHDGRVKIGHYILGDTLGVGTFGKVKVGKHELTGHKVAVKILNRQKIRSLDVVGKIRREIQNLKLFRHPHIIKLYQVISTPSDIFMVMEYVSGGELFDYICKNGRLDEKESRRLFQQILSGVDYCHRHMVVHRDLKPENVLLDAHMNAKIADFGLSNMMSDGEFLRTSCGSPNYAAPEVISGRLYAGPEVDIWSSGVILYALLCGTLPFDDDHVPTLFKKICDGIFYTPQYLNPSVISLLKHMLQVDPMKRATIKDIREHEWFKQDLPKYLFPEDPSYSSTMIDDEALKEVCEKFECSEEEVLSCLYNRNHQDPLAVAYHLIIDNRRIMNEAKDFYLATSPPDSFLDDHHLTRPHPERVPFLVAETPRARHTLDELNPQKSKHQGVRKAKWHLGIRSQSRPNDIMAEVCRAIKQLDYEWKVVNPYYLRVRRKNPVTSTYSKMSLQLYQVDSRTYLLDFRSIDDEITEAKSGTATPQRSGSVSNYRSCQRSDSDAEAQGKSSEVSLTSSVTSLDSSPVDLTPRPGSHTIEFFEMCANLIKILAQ

[6] = biological target: T5, AMPK alpha2/beta2/gamma1 (Homo sapiens) (UniProt P54646+O43741+P54619); assay: Activation of human recombinant AMPKalpha2beta2gamma1 expressed in Escherichia coli at 50 nM incubated for 1 hr using serine/threonine kinase substrate
T5 sequence (O43741 whole entry, looked up): as the sequence (O43741 whole entry, looked up) above
T5 sequence (P54619 whole entry, looked up): as the sequence (P54619 whole entry, looked up) above
T5 sequence (P54646 whole entry, looked up): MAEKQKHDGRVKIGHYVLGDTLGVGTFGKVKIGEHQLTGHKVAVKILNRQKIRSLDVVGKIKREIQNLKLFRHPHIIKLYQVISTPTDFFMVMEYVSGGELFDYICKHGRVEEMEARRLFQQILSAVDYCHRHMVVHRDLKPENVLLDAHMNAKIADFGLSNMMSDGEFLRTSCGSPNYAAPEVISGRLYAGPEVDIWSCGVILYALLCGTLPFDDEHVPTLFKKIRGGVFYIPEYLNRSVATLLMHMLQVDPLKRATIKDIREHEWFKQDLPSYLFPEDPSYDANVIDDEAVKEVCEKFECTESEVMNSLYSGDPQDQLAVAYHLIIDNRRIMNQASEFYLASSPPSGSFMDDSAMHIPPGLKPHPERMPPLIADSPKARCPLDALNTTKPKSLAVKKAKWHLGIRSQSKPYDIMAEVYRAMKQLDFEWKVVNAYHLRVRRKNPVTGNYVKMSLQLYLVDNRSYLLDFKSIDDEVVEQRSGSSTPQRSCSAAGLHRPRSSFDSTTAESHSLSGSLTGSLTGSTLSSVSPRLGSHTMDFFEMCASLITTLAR

[7] = biological target: T6, AMP-activated protein kinase (AMPK) alpha-1/beta-1/gamma-1 (Homo sapiens) (UniProt P54619+Q9Y478+Q13131); assay: Activation of human recombinant AMPKalpha1beta1gamma1 expressed in Escherichia coli at 50 nM incubated for 1 hr using serine/threonine kinase substrate
T6 sequence (P54619 whole entry): as the sequence (P54619 whole entry, looked up) above
T6 sequence (Q13131 whole entry partner): as the sequence (Q13131 whole entry, looked up) above
T6 sequence (Q9Y478 2-270 partner limits assumed): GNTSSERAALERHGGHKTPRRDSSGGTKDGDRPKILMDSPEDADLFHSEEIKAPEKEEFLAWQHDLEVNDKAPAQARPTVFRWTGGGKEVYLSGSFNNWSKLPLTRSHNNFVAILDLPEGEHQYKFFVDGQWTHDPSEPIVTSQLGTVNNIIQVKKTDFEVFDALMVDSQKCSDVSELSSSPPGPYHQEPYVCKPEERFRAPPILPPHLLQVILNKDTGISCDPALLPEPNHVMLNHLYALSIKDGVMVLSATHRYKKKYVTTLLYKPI

[8] = biological target: T7, AMP-activated protein kinase alpha-2/beta-2/gamma-2 (Homo sapiens) (UniProt P54646+O43741+Q9UGJ0); assay: Activation of human recombinant AMPKalpha2beta2gamma2 expressed in Escherichia coli at 50 nM incubated for 1 hr using serine/threonine kinase substrate
T7 sequence (O43741 whole entry, looked up): as the sequence (O43741 whole entry, looked up) above
T7 sequence (P54646 whole entry, looked up): as the sequence (P54646 whole entry, looked up) above
T7 sequence (Q9UGJ0 whole entry, looked up): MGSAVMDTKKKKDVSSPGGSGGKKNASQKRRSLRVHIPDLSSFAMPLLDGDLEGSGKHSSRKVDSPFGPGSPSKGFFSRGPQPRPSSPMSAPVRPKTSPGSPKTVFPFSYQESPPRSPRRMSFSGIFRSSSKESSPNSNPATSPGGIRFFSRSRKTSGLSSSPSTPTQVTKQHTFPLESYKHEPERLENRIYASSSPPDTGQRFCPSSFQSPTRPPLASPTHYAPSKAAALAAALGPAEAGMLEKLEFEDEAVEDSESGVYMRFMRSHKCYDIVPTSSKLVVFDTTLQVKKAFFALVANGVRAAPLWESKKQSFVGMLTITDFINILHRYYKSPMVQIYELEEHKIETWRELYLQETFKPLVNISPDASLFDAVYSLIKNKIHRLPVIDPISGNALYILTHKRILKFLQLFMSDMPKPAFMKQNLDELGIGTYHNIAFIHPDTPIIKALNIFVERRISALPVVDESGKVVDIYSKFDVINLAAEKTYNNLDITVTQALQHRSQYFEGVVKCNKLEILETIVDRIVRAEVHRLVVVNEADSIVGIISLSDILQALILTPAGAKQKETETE

[9] = biological target: T8, AMP-activated protein kinase alpha-2/beta-1/gamma-3 (Homo sapiens) (UniProt P54646+Q9Y478+Q9UGI9); assay: Activation of human recombinant AMPKalpha2beta1gamma3 expressed in Escherichia coli at 50 nM incubated for 1 hr using serine/threonine kinase substrate
[10] = Inhibition of oxygen consumption rate in isolated mitochondria from rat L6 cells assessed as oxygen consumption level at 1.2 uM (reference value: 100 +/- 1.9%); format: functional; set-up: scale not given: the % may be the effect or the level left
[11] = Inhibition of oxygen consumption rate in isolated mitochondria from rat L6 cells assessed as oxygen consumption level at 2.5 uM (reference value: 100 +/- 1.9%); format: functional; set-up: scale not given: the % may be the effect or the level left
[12] = biological target: Voltage-gated inwardly rectifying potassium channel KCNH2 (Homo sapiens, UniProt Q12809); assay: Inhibition of human ERG by patch clamp assay
[13] = test system: L6; assay: Inhibition of oxygen consumption rate in rat L6 cells assessed as oxygen consumption level at 20 uM (reference value: 100 +/- 1.6%); format: functional; set-up: scale not given: the % may be the effect or the level left
[14] = test system: L6; assay: Inhibition of mitochondrial membranes potential in rat L6 cells assessed as mitochondrial membranes potential level at 20 uM incubated for 40 mins by JC1 dye staining based fluorescence assay (reference value: 100 +/- 2.8%); format: functional; set-up: scale not given: the % may be the effect or the level left
[15] = test system: Hepatocyte; assay: Inhibition of glucose production in Sprague-Dawley rat primary hepatocytes grown under gluconeogenic medium assessed as glucose production level at 20 uM incubated for 6 hrs by glucose assay reagent based glucose oxidase method (reference value: 100%); format: functional; set-up: scale not given: the % may be the effect or the level left
[16] = test system: Hepatocyte; assay: Inhibition of glucose production in Sprague-Dawley rat primary hepatocytes grown under gluconeogenic medium assessed as glucose production level at 10 uM incubated for 6 hrs by glucose assay reagent based glucose oxidase method (reference value: 100%); format: functional; set-up: scale not given: the % may be the effect or the level left
[17] = test system: L6; assay: Stimulation of glucose consumption in rat L6 cells at 10 uM incubated for 12 hrs by glucose assay reagent based glucose oxidase method relative to untreated control; format: functional
[18] = Inhibition of oxygen consumption rate in isolated mitochondria from rat L6 cells assessed as oxygen consumption level at 5 uM (reference value: 100 +/- 1.9%); format: functional; set-up: scale not given: the % may be the effect or the level left
[19] = test system: Hepatocyte; assay: Inhibition of glucose production in Sprague-Dawley rat primary hepatocytes grown under gluconeogenic medium assessed as glucose production level at 5 uM incubated for 6 hrs by glucose assay reagent based glucose oxidase method (reference value: 100%); format: functional; set-up: scale not given: the % may be the effect or the level left
[20] = Inhibition of oxygen consumption rate in isolated mitochondria from rat L6 cells assessed as oxygen consumption level at 10 uM (reference value: 100 +/- 1.9%); format: functional; set-up: scale not given: the % may be the effect or the level left
[21] = test system: L6; assay: Inhibition of oxygen consumption rate in rat L6 cells assessed as oxygen consumption level at 10 uM (reference value: 100 +/- 1.6%); format: functional; set-up: scale not given: the % may be the effect or the level left
[22] = test system: Hepatocyte; assay: Inhibition of glucose production in Sprague-Dawley rat primary hepatocytes grown under gluconeogenic medium incubated for 6 hrs by glucose assay reagent based glucose oxidase method (reference value: 100%); format: functional, cell-based
[23] = test system: L6; assay: Inhibition of oxygen consumption rate in rat L6 cells; format: functional, cell-based
[24] = biological target: T5, AMPK alpha2/beta2/gamma1 (Homo sapiens); assay: Activation of human recombinant AMPKalpha2beta2gamma1 expressed in Escherichia coli at 20 uM incubated for 1 hr using serine/threonine kinase substrate
[25] = test system: L6; assay: Activation of AMPKalpha in rat L6 cells assessed as increase in ACC phosphorylation incubated for 1 hrs by Western blot method; format: cell-based
[26] = biological target: T2, AMP-activated protein kinase alpha-1/beta-2/gamma-3 (Homo sapiens); assay: Activation of human recombinant AMPKalpha1beta2gamma3 expressed in Escherichia coli at 20 uM incubated for 1 hr using serine/threonine kinase substrate
[27] = biological target: T3, AMPK alpha1/beta1/gamma2 (Homo sapiens); assay: Activation of human recombinant AMPKalpha1beta1gamma2 expressed in Escherichia coli at 20 uM incubated for 1 hr using serine/threonine kinase substrate
[28] = biological target: T1, AMPK alpha2/beta1/gamma1 (Homo sapiens); assay: Activation of human recombinant AMPKalpha2beta1gamma1 expressed in Escherichia coli at 20 uM incubated for 1 hr using serine/threonine kinase substrate
[29] = biological target: T8, AMP-activated protein kinase alpha-2/beta-1/gamma-3 (Homo sapiens); assay: Activation of human recombinant AMPKalpha2beta1gamma3 expressed in Escherichia coli at 20 uM incubated for 1 hr using serine/threonine kinase substrate
[30] = biological target: T4, AMPK alpha1/beta2/gamma1 (Homo sapiens); assay: Activation of human recombinant AMPKalpha1beta2gamma1 expressed in Escherichia coli at 20 uM incubated for 1 hr using serine/threonine kinase substrate
[31] = test system: L6; assay: Activation of AMPKalpha in rat L6 cells assessed as increase in AMPKalpha Thr172 phosphorylation incubated for 1 hrs by Western blot method; format: cell-based
[32] = biological target: T6, AMP-activated protein kinase (AMPK) alpha-1/beta-1/gamma-1 (Homo sapiens); assay: Activation of human recombinant AMPKalpha1beta1gamma1 expressed in Escherichia coli at 20 uM incubated for 1 hr using serine/threonine kinase substrate
[33] = biological target: T7, AMP-activated protein kinase alpha-2/beta-2/gamma-2 (Homo sapiens); assay: Activation of human recombinant AMPKalpha2beta2gamma2 expressed in Escherichia coli at 20 uM incubated for 1 hr using serine/threonine kinase substrate
[34] = test system: L6; assay: Inhibition of oxygen consumption rate in isolated mitochondria from rat L6 cells; format: functional

Structure (SMILES): COc1ccc(OC)c2c1CC1c3cc(C(=O)N4CCn5c(nnc5C(F)(F)F)C4)sc3CCN1C2 (stereo not drawn)
Activity [1]: 93.9%

Activity [2]: Active
Activity [3]: inactive
Activity [4]: Active
Activity [5]: inactive
Activity [6]: inactive
Activity [7]: Active
Activity [8]: inactive
Activity [9]: Active
Structure (SMILES): N#Cc1c(O)c2c(-c3ccc(-c4ccccc4O)cc3)csc2[nH]c1=O

Structure (SMILES): Cc1ccc(C)c2c1CC1c3ccsc3CCN1C2 (stereo not drawn)
Activity [1]: 95.6%

Structure (SMILES): COc1ccc2c(c1)CC1c3ccsc3CCN1C2 (stereo not drawn)
Activity [1]: 103.6%

Structure (SMILES): CC(C)(C)C(=O)Nc1ccc2c(c1)CC1c3ccsc3CCN1C2 (stereo not drawn)
Activity [1]: 112.3%

Structure (SMILES): COc1cc2c(c(OC)c1OC)CN1CCc3sccc3C1C2 (stereo not drawn)
Activity [1]: 131.1%

Structure (SMILES): COc1ccc(OC)c2c1CC1c3cc(CC4CCNCC4)sc3CCN1C2 (stereo not drawn)
Activity [1]: 103.4%

Structure (SMILES): COc1cc2c(cc1O)CN1CCc3sccc3C1C2 (stereo not drawn)
Activity [1]: 105.2%

Structure (SMILES): COc1ccc2cc3[n+](cc2c1OC)CCc1cc2c(cc1-3)OCO2.[Cl-] [BERBERINE CHLORIDE]
Activity [10]: 78.9%
Activity [11]: 69.3%
IC50 [12]: 3.1 µM
Activity [13]: 75%
Activity [14]: 91.2%
Activity [15]: 49.8%
Activity [16]: 64.7%
Activity [17]: 173.1%
Activity [18]: 63.6%
Activity [19]: 68.8%
Activity [20]: 59.2%
Activity [21]: 91.9%

inhibition [22]: Dose-dependent effect
Structure (SMILES): COc1ccc(OC)c2c1CC1c3cc(CC4CC4)sc3CCN1C2 (stereo not drawn)
Activity [1]: 261.7%
Activity [14]: 86.4%
Activity [15]: 45.8%
Activity [16]: 62.8%
Activity [19]: 85.4%

Structure (SMILES): O=C(Cc1ccccc1)Nc1ccc2c(c1)CC1c3ccsc3CCN1C2 (stereo not drawn)
Activity [1]: 120.4%

Structure (SMILES): COc1cc2c(cc1O)CC1c3ccsc3CCN1C2 (stereo not drawn)
Activity [1]: 114.9%

Structure (SMILES): COc1ccc(OC)c2c1CC1c3cc(C(=O)O)sc3CCN1C2 (stereo not drawn)
Activity [1]: 116%

Structure (SMILES): COc1cc2c(cc1OC)CN1CCc3sccc3C1C2 (stereo not drawn)
Activity [1]: 114.4%

Structure (SMILES): COc1ccc(OC)c2c1CC1c3cc(C(=O)N4CCCC4)sc3CCN1C2 (stereo not drawn)
Activity [1]: 100.5%

Activity [24]: inactive
Activity [26]: inactive
Activity [27]: inactive
Activity [28]: inactive
Activity [29]: inactive
Activity [30]: inactive
Activity [32]: inactive
inhibition [22]: Dose-dependent effect
Activity [33]: inactive
Structure (SMILES): COc1ccc(OC)c2c1CC1c3ccsc3CCN1C2 (stereo not drawn)
inhibition [23]: Dose-dependent effect
Activity [25]: Dose-dependent effect
Activity [10]: 78.9%
Activity [11]: 69.3%
Activity [1]: 178.1%
Activity [31]: Dose-dependent effect
Activity [13]: 90.4%
Activity [14]: 81.5%
Activity [15]: 26.1%
Activity [16]: 46.6%
Activity [18]: 63.6%
Activity [19]: 56.7%
Activity [20]: 59.2%
inhibition [34]: Dose-dependent effect
Activity [21]: 92.9%

Structure (SMILES): CS(=O)(=O)Nc1cc2c(cc1OCc1ccccc1)CN1CCc3sccc3C1C2 (stereo not drawn)
Activity [1]: 115.5%
